Data set [1] can be described thus: Transfer of Pro-Hyp in blood after administration (LC-MS/MS). Particulars: for Tmax: female, C57 BL/6N, mouse, blood, mice without wound, read-out: time at which blood concentration of Pro-Hyp reached a peak (converted). The data set is classed as in vivo, C57 BL/6N mice. Here is the method: To C57 BL/6N mice (8 to 10 weeks of age, female) (N=4, per group) in which no wound site is formed, a physiological saline solution (500 nmol/200 μL) of the dipeptide consisting of the amino acid sequence of Pro-Hyp (which may be hereinafter referred to as simply “Pro-Hyp”) is administered intraperitoneally by injection (single administration) or a physiological saline solution (2500 nmol/200 μL) of Pro-Hyp was orally administered using a probe (single administration). After administration, blood was collected over time and Pro-Hyp occurred in blood was measured by LC-MS/MS method. The measurement conditions of LC-MS/MS method were as follows.
Collected blood was 2 times diluted in physiological saline and then centrifugation was performed under conditions at 20° C., 500×g, for 15 minutes. To the supernatant recovered after the centrifugation, 3 volumes of 100% ethanol were added. The supernatant to which 100% ethanol had been added was centrifuged at 20° C., 13000 rpm, for 15 minutes to perform deproteinization. Subsequently, the deproteinized sample was 10 times diluted in 50 mM ammonium bicarbonate and analyzed by LC-MS/MS. For the LC conditions, the analysis was conducted using CAPCELL PAK C1 UG120 10 mm×I.D. 2.0 mm (OSAKA SODA CO., LTD.) as a guard column and the column Hypersil Gold PFP 150 mm×I.D. 2.1 mm, 5 μm (manufactured by Thermo Fisher Scientific, Inc.). The analysis conditions were Mobile phase A MeOH, Mobile phase B a 2% formic acid aqueous solution containing 2 mM ammonium acetate, injection volume 5 μL, and gradient of Table 1 below.
The MS/MS was conducted using a tandem mass spectrometer (TSQ Vantage (manufactured by Thermo Fisher Scientific, Inc.)) under conditions of Method of ionization: Positive ESI, Spray voltage: 3000 V, Vaporizer: 300° C., Sheath gas: 30, Aux gas: 15, Capillary temperature: 250° C., MRM conditions: Parent Mass 229.1, Product Mass 70, Collision energy: 29 ev, S-Lens: 68.
Moreover, in the intraperitoneal administration, the Pro-Hyp concentration reached very high since it transferred in blood without gastrointestinal absorption. […] The C57 BL/6N mice in which no wound site was formed were used in this experiment, it is considered that a similar result is also obtained with Model-1 mice and Model-2 mice generated from the same line of mice.

The subject of data set [2] is granulation tissue in wound site of abdominal wall circular incision model (Model-2) mice. Briefly: Formation of granulation tissue by administration of various polypeptides in Model-2 mice. The data set is classed as in vivo, C57 BL/6N mice. Particulars: Day 7; i.p. once a day for 7 days, doses of Table 7; control sparse; FIG. 9.
Protocol: In this Example, aiming to examine granulation tissue formed in the peritoneum layer under tension, a novel model (Model-2) of granulation tissue formation that occurs between the peritoneum layers, which are under the minimal effect of the healing response from the skin layer and under direct influence of the tension of muscles, was generated in the following procedures. Female C57 BL/6N mice at 8 to 10 weeks of age were used. Anesthesia was introduced by administering 200 μL per animal (0.065 mg/g weight) of the anesthetic Somnopentyl (manufactured by Shering-Plough Corporation) to the peritoneal cavity. After the introduction of anesthesia, abdominal skin was cut open 1.5 cm along the midline using scissors for operations. […] Subsequently, the center part of the abdominal wall was picked up with round tip tweezers with an outside diameter of 3 mm, and the tissue in the central part of the abdominal wall was completely removed surgically in a circle with curved tip micro-operation scissors (Bottom panel in FIG. 1). After the incision, the positions 0.25 cm apart from the upper end and 0.25 cm apart from the bottom end of the incised skin (wound site) were sewed up to remove the tension of the skin. Subsequently, the skin was wrapped with Tegaderm and an underwear-shaped silicon protector was further put on to prevent the self-harm of the wound site. […]
Setting [3] is: oral, single administration 2500 nmol/200 μL.

Where two headings read alike, the source gives them in different places. Non-standard residues stand in square brackets, D forms with d. Residues, ends and D or L forms follow the SMILES beside them. Hyp = O=C(O)[C@@H]1C[C@@H](O)CN1

`O=C(O)[C@@H]1C[C@@H](O)CN1C(=O)[C@@H]1CCCN1` [Pro-Hyp] (H-Pro-[Hyp]-OH; N-terminus and C-terminus assumed): the Tmax in data set [1] (ip, intraperitoneal, single administration 500 nmol/200 μL) was 15 min; in data set [1] (setting [3]), 15 min. The “time at which blood concentration decreased to a baseline level” value came out at 3 h in data set [1] (intraperitoneal, single administration 500 nmol/200 μL) and 3 h in data set [1] (setting [3]).

In the case of Hyp-Gly, the “collagen fibers in granulation tissue, Masson trichrome stain” value in data set [2] is “the collagen fibers were dense and matured as the tissue”.

The values above are taken from US20210228675A1, “HYPERTROPHIC SCAR INHIBITING COMPOSITION” (FUKUOKA UNIVERSITY, priority 2018, published 2021).
